B1: SEQ ID NO: 196: evolved GAT gene (nucleic acid)
DNA: ATGCTAGAGGTGAAACCGATTAACGCAGAGGATACCTATGAACTAAGGCATAAAATACTCAGACCAAACCAGCCGTTAGAAGTGTGTATGTATGAAACCGATTTACTTCGTGGTGCATTTCACTTAGGCGGCTTTTACAGGGGCAAACTGATTTCCATAGCTTCATTCCACCAGGCCGAGCACTCAGACCTCCAAGGCCAGAAACAGTACCAGCTCCGAGGTATGGCTACCTTGGAAGGTTATCGTGATCAGAAAGCGGGATCGAGTCTAATTAGACACGCTGAACAAATTCTTCGTAAGAGGGGGGCGGACATGCTTTGGTGCAATGCGCGGACATCCGCCTCAGGCTACTACAAAAAGTTAGGCTTCAGCGAGCAGGGAGAGGTATTTGAAACGCCGCCAGTAGGACCTCACATCCTGATGTATAAAAGGCTCACA
modifications: Synthetic DNA Sequence; 0_6D10
notes: evolved GAT gene

What was measured:
[1] = test system: Nicotiana tabacum L. Xanthi leaf explants; experiment: Tobacco shoot regeneration with glyphosate selection; format: cell-based; conditions: explants lacking a GAT gene
Excerpt: Agrobacterium-mediated transformation of plant cells occurs at low efficiencies. To allow propagation of transformed cells while inhibiting proliferation of non-transformed cells, a selectable marker is needed. Antibiotic markers for kanamycin and hygromycin and the herbicide modifying gene bar, which detoxifies the herbicidal compound phosphinothricin, are examples of selectable markers used in plants (Methods in Molecular Biology, 1995, 49:9-18). […] An evolved GAT gene (0—5B8), SEQ ID NO: 190, was cloned between a plant promoter (enhanced strawberry vein banded virus) and a […] terminator and introduced into the T-DNA region of the binary vector pMAXY3793 suitable for transformation of plant cells via Agrobacterium tumefaciens EHA105 as shown in FIG. 12. A screenable GUS marker was present in the T-DNA to allow confirmation of transformation. Transgenic tobacco shoots were generated using glyphosate as the only selecting agent.
Axillary buds of Nicotiana tabacum L. Xanthi were subcultured on half-strength MS medium with sucrose (1.5%) and Gelrite (0.3%) under 16-h light (35-42 μEinsteins m^−2 s^−1, cool white fluorescent lamps) at 24° C. every 2-3 weeks. Young leaves were excised from plants after 2-3 weeks subculture and were cut into 3×3 mm segments. A. tumefaciens EHA105 was inoculated into LB medium and grown overnight to a density of A600=1.0. […]

[2] = test system: tobacco plants; experiment: Herbicide spray tests of GAT expressing tobacco plants; format: in vivo, Nicotiana tabacum
Description: Tobacco shoots generated as described in EXAMPLE 9 were excised from the explants and transferred to basal root induction (BRI) medium composed of half-strength Murashige and Skoog (MS) medium, pH 5.7, with 1.5% sucrose, 0.3% Gelrite, 0-200 uM glyphosate and 400 ug/ml Timentin. Rooted plants and axillary shoots were clonally propagated by cutting the stem and transferring it to fresh BRI medium until the desired number of clones was obtained. Rooted plants were carefully removed from the solid medium. Prior to placing the plants into small pots of soil, the roots were washed to remove any remaining Gelrite. A protective plastic cover was kept over the plants for at least one week until the plants were well established.
To determine if GAT expressing tobacco plants could tolerate simulated field rate sprays of glyphosate, clonal lines of several events per GAT variant were tested. A typical test was set up as follows: One clone from each event was sprayed with 1 ml of solution containing the isopropylamine salt of glyphosate (Sigma P5671) and 0.125% Triton X-100, pH 6.8 such that the amount of active ingredient sprayed was equivalent to that present in commercial glyphosate products. For example, to achieve 32 oz/acre (1×) of herbicide containing 40% active ingredient (“ai”), 2.4 ul of 40% ai formulation was diluted into 1 ml water and sprayed on a plant in a 4-inch square pot (16 in^2). A mock application (0×) with surfactant only was also included. In some cases a second spray was applied 1-4 weeks later. Plants were kept in controlled growth rooms at 25° C. and 70% humidity with 16 hr light.
Seed-grown wild type plants were also sprayed. […] All 0× plants were healthy, including the non-GAT control plants. Three weeks later all of the surviving plants were sprayed with an 8× dose.

[3] = test system: yeast strain YPH499; experiment: Glyphosate selection of transformed yeast cells; format: cell-based, Saccharomyces cerevisiae; conditions: CSM-YNB-glucose medium lacking aromatic amino acids with added glyphosate
Excerpt: Selection markers for yeast transformation are usually auxotrophic genes that allow growth of transformed cells on a medium lacking the specific amino acid or nucleotide. Because Saccharomyces cerevisiae is sensitive to glyphosate, GAT can also be used as a selectable marker. […] This plasmid contains an E. coli origin of replication and a gene conferring carbenicillin resistance as well as a TRP1, tryptophan auxotroph selectable marker for yeast transformation.
The GAT containing construct is transformed into E. coli XL1 Blue (Statagene) and plated on LB carbenicillin (50 ug/ml) agar medium. Plasmid DNA is prepared and used to transform yeast strain YPH499 (Stratagene) using a transformation kit (Bio 101). Equal amounts of transformed cells are plated on CSM-YNB-glucose medium (Bio 101) lacking all aromatic amino acids (tryptophan, tyrosine, and phenylalanine) with added glyphosate. For comparison, p424TEF lacking the GAT gene is also introduced into YPH499 and plated as described. […] The presence of the GAT containing vector in glyphosate selected colonies can be confirmed by re-isolation of the plasmid and restriction digest analysis.

| Molecule | glyphosate concentration that completely inhibited any shoot formation [1] | plant response two weeks after glyphosate spray ([2]; 0.5, 2 or 4× glyphosate, vector only and seed grown wild type tobacco) | plant response after 8× dose ([2]; 8× glyphosate, non-GAT 0× control tobacco plants) | function as selectable marker in yeast [3] | plant response two weeks after glyphosate spray ([2]; 0.5, 2 or 4× glyphosate (1× = 32 oz/acre of 40% ai), transgenic GAT tobacco) | survival after second spray ([2]; 8× glyphosate dose three weeks later, transgenic GAT tobacco) |
| --- | --- | --- | --- | --- | --- | --- |
| O=C(O)CNCP(=O)(O)O [glyphosate, N-phosphonomethylglycine] | greater than 20 uM | stopped growing, wilted, and turned brown | died within two weeks | – | – | – |
| B1 | – | – | – | efficient selectable marker | survived the spraying procedure without signs of glyphosate damage | all GAT plants survived |
